Experimental data as given in patent US8084394B2, “Method for the control of harmful micro-organisms and insects in crop protection with means of dipole-electrical air-jet spray-technology, ozonated water and UV-C irradiation” (priority 2003, dated 2011).

Assays:
[1] = stability (half-life) of ozone as gas and in water; assay type: physicochemical; details: new injection technique with inorganic wetting agent; threefold
Method: Ozone is a highly unstable molecule in gaseous form which disintegrated in a short period of time (half-life time ca. 20 minutes) again in oxygen.
With this new injection technique of the extensive mixing of ozone with the spray waters and with the combination of an inorganic wetting agent, the ozone concentration in the dissolved gas bubbles can be up to 17% and has a threefold capacity in the water (up to 1 hour) the fact that ozone gas is transforming to oxygen.
The half-life time of Ozone in water is approximately 2 minutes, in other words the ozone concentration in water is reduced by half every 2 minutes.

[2] = cited from earlier work
[3] = tested on: microorganisms; details: cited from earlier work
[4] = cited from earlier work; remark: listed apart in the source

O=[O+][O-] [Ozone]
capacity (persistence) of ozone in the water [1]: up to 1 hour
half-life time ([2]; gaseous form, disintegration to oxygen): ca. 20 minutes
half-life time of Ozone in water ([2]; in water): approximately 2 minutes
speed of destruction of microorganisms relative to chlorine ([3]; faster than chlorine): 3125 times
reactivity relative to chlorine ([3]; more reactive than chlorine): 51 times
exposition concentration unproblematic for permanent exposure [4]: 0.1 mg per m3/air
